Activity data for 1 compound are collected here from ChEMBL document CHEMBL2176983, “Hispidin analogue davallialactone attenuates carbon tetrachloride-induced hepatotoxicity in mice” (J Nat Prod, 2012).

Holding throughout (type): functional, organism-based
Test [1] deals with Mus musculus. Description: Hepatoprotective activity in CCL4-induced FVB mouse assessed as reduction in serum MDA level at 2.5 to 10 mg/kg, sc administered for 3 consecutive days prior CCL4 challenge measured 12 to 24 hrs post challenge relative to control.
Test [2] deals with Mus musculus. In words: Hepatoprotective activity in CCL4-induced FVB mouse assessed as reduction in liver necrosis at 2.5 to 10 mg/kg, sc administered for 3 consecutive days prior CCL4 challenge measured 12 to 24 hrs post challenge by hematoxylin/eosin-staining method relative to control.
In test [3] the test system is Mus musculus. Description: Hepatoprotective activity in CCL4-induced FVB mouse assessed as effect on CYP2E1 expression at 2.5 to 10 mg/kg, sc administered for 3 consecutive days prior CCL4 challenge measured 12 to 24 hrs post challenge by Western blot method relative to control. (In western blotting, separated proteins are transferred to a membrane and probed.)
Test [4] has as its system Mus musculus. Description: Hepatoprotective activity in CCL4-induced FVB mouse assessed as increase in CYP2E1 p-nitrophenol activity at 2.5 to 10 mg/kg, sc administered for 3 consecutive days prior CCL4 challenge measured 12 to 24 hrs post challenge relative to control.
The test system of test [5] is Mus musculus. In words: Hepatoprotective activity in FVB mouse assessed as reduction of CCL4-induced increase of serum ALT level at 2.5 to 10 mg/kg, sc administered for 3 consecutive days prior CCL4 challenge measured 12 to 24 hrs post challenge.
The test system of test [6] is Mus musculus. Description: Hepatoprotective activity in CCL4-induced FVB mouse assessed as increase in HO-1 expression at 2.5 to 10 mg/kg, sc administered for 3 consecutive days prior CCL4 challenge measured 12 to 24 hrs post challenge by Western blot method relative to control.
Test [7] deals with Mus musculus. In words: Hepatoprotective activity in CCL4-induced FVB mouse assessed as reduction in ROS level at 10 mg/kg, sc administered for 3 consecutive days prior CCL4 challenge measured 12 to 24 hrs post challenge by DHE-labeling method relative to control. On the set-up: dose 10 mg/kg.
Test [8] concerns Mus musculus. Description: Hepatoprotective activity in FVB mouse assessed as reduction of CCL4-induced increase of serum AST level at 2.5 to 10 mg/kg, sc administered for 3 consecutive days prior CCL4 challenge measured 12 to 24 hrs post challenge.
The test system of test [9] is Mus musculus. In words: Hepatoprotective activity in CCL4-induced FVB mouse assessed as decrease in iNOS expression at 2.5 to 10 mg/kg, sc administered for 3 consecutive days prior CCL4 challenge measured 12 to 24 hrs post challenge by Western blot method relative to control.
The subject of test [10] is Mus musculus. Description: Hepatoprotective activity in CCL4-induced FVB mouse assessed as restoration of Cu/Zn SOD expression at 2.5 to 10 mg/kg, sc administered for 3 consecutive days prior CCL4 challenge measured 12 to 24 hrs post challenge by Western blot method relative to control.
Test [11] has as its system Mus musculus. Description: Hepatoprotective activity in sc dosed CCL4-induced FVB mouse assessed as reduction in liver necrosis at administered for 3 consecutive days prior CCL4 challenge measured 24 hrs post challenge by hematoxylin/eosin-staining method relative to control.
For test [12], the system named is Mus musculus. Description: Hepatoprotective activity in CCL4-induced FVB mouse assessed as decrease in cleaved caspase3-positive hepatocytes at 2.5 to 10 mg/kg, sc administered for 3 consecutive days prior CCL4 challenge measured 24 hrs post challenge by immunofluorescence staining method relative to control. As to conditions: Hepatocyte.
For test [13], the system named is Mus musculus. Description: Hepatoprotective activity in CCL4-induced FVB mouse assessed as decrease in serum TNFalpha level at 2.5 to 10 mg/kg, sc administered for 3 consecutive days prior CCL4 challenge measured 12 to 24 hrs post challenge by ELISA relative to control. (ELISA stands for enzyme-linked immunosorbent assay.)
Test [14] concerns Mus musculus. In words: Hepatoprotective activity in CCL4-induced FVB mouse assessed as decrease in COX2 expression at 2.5 to 10 mg/kg, sc administered for 3 consecutive days prior CCL4 challenge measured 12 to 24 hrs post challenge by Western blot method relative to control.
The subject of test [15] is Mus musculus. Description: Hepatoprotective activity in CCL4-induced FVB mouse assessed as decrease in liver macrophages at 2.5 to 10 mg/kg, sc administered for 3 consecutive days prior CCL4 challenge measured 24 hrs post challenge by immunofluorescence staining method relative to control.
The test system of test [16] is Mus musculus. In words: Hepatoprotective activity in CCL4-induced FVB mouse assessed as reduction in liver necrosis at 10 mg/kg, sc administered for 3 consecutive days prior CCL4 challenge measured 12 hrs post challenge by hematoxylin/eosin-staining method relative to control. On the set-up: dose 10 mg/kg.

The source made the active and inactive calls. No cut-off for these calls is given here.

For `CC1=CC(=O)[C@H](c2c(O)cc(/C=C/c3ccc(O)c(O)c3)oc2=O)[C@@H](c2ccc(O)c(O)c2)O1`, the result with Mus musculus [1], in the test on Mus musculus [2], with Mus musculus [4], in the test on Mus musculus [5], with Mus musculus [6] and in the test on Mus musculus [7] was Active. Further, the result in the test on Mus musculus [8], in the test with Mus musculus [9], with Mus musculus [10], in the test with Mus musculus [12], in the test on Mus musculus [13] and in the test on Mus musculus [14] was Active. In addition, the outcome in the test with Mus musculus [15] and in the test with Mus musculus [16] was Active. Moreover, the result in the test on Mus musculus [3] was inactive. Moreover, the Activity result in the test with Mus musculus [11] is “Dose-dependent effect”.
